Usually IC50 stands for the concentration that inhibits the measured activity by half.

This assay has as its system YAP-TEAD. Description: TEAD inhibition, Hippo Pathway TEAD Reporter MCF-7 luciferase assay. The conditions noted are these: Homo sapiens, MCF7, 24 h, Hippo Pathway TEAD Reporter MCF-7 cells, luciferase activity after 24 h; read-out: IC50 of the test compounds on YAP-TEAD inhibition (Group). Format: cell-based. Put shortly: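 IC50 derived from ONE-Glo luciferase luminescence after 24 h compound exposure (11 concentrations in quadruplicate, 0.1% DMSO control). Reporter: MCF-7 line expressing firefly luciferase under TEAD elements, constitutively activated by nuclear YAP1.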
On to `COc1ccc(Oc2ccc(C(F)(F)F)cc2)cc1NC(=O)C1CN(C)C(=O)N1C` (centres unmarked) [Compound 139, N-(2-Methoxy-5-(4-(trifluoromethyl)phenoxy)phenyl)-1,3-dimethyl-2-oxo-imidazolidine-4-carboxamide], for which the IC50 is less than 50 nM.
Then `COc1ccc(Oc2ccc(C(F)(F)F)cc2)cc1NC(=O)[C@H]1CNC(=O)N1C` [Compound 140, (R)—N-(2-Methoxy-5-(4-(trifluoromethyl)phenoxy)phenyl)-3-methyl-2-oxo-imidazolidine-4-carboxamide], with 50 to 300 nM.
As for `COc1ccc(Oc2ccc(C(F)(F)F)cc2)cc1NC(=O)[C@@H]1CNC(=O)N1C` [Compound 141, (S)—N-(2-Methoxy-5-(4-(trifluoromethyl)phenoxy)phenyl)-3-methyl-2-oxoimidazolidine-4-carboxamide], the figure is less than 50 nM.
As for `COc1ccc(Oc2ccc(C(F)(F)F)cc2)cc1NC(=O)C1CN(C)C(=O)N1C(C)=O` (centres unmarked) [Compound 142, 3-Acetyl-N-(2-methoxy-5-(4-(trifluoromethyl)phenoxy)phenyl)-1-methyl-2-oxoimidazolidine-4-carboxamide], the figure is 301 to 2000 nM; as for `COc1ccc(Oc2ccc(C(F)(F)F)cc2)cc1NC(=O)[C@@H]1CC(OC)C(=O)N1C` (stereo partly drawn) [Compound 143, (2S)-4-Methoxy-N-(2-methoxy-5-(4-(trifluoromethyl)phenoxy)phenyl)-1-methyl-5-oxopyrrolidine-2-carboxamide], less than 50 nM.
For the compound `COc1ccc(Oc2ccc(C(F)(F)F)cc2)cc1NC(=O)C1CNC(=O)N1` (centres unmarked) [Compound 144, N-(2-Methoxy-5-(4-(trifluoromethyl)phenoxy)phenyl)-2-oxoimidazolidine-4-carboxamide], the IC50 fell in the range of 50 to 300 nM.
As for `COc1ccc(Oc2ccc(C(F)(F)F)cc2)cc1NC(=O)C1CCC(=O)N1CC1CC1` (centres unmarked) [Compound 147, 1-(Cyclopropylmethyl)-N-(2-methoxy-5-(4-(trifluoromethyl)phenoxy)phenyl)-5-oxopyrrolidine-2-carboxamide], the figure is 50 to 300 nM.
As for `COc1ccc(Oc2ccc(C(F)F)cc2)cc1NC(=O)C1CNC(=O)N1C` (centres unmarked) [Compound 149, N-(5-(4-(Difluoromethyl)phenoxy)-2-methoxyphenyl)-3-methyl-2-oxoimidazoli-dine-4-carboxamide], the figure is less than 50 nM; as for `CN1C(=O)CC[C@H]1C(=O)Nc1cc(O[C@H]2CC[C@H](C(F)(F)F)CC2)cc2c1OCC2` [Compound 150, (S)-1-Methyl-5-oxo-N-(5-(((trans)-4-(trifluoromethyl)cyclohexyl)oxy)-2,3-dihydrobenzofuran-7-yl)pyrrolidine-2-carboxamide], less than 50 nM.
In the case of `CN1C(=O)CC[C@@H]1C(=O)Nc1cc(O[C@H]2CC[C@H](C(F)(F)F)CC2)cc2c1OCC2` [Compound 151, (R)-1-Methyl-5-oxo-N-(5-(((trans)-4-(trifluoromethyl)cyclohexyl)oxy)-2,3-dihydrobenzofuran-7-yl)pyrrolidine-2-carboxamide], the IC50 is less than 50 nM.
As for `COc1cc(F)c(Oc2ccc(C(F)(F)F)cn2)cc1NC(=O)C1COC(=O)N1C` (centres unmarked) [Compound 152, N-(4-Fluoro-2-methoxy-5-((5-(trifluoromethyl)pyridin-2-yl)oxy)phenyl)-3-methyl-2-oxooxazolidine-4-carboxamide], the figure is less than 50 nM; as for `COc1cc(F)c(Oc2ccc(C(F)(F)F)cn2)cc1NC(=O)C1CNC(=O)N1C` (centres unmarked) [Compound 153, N-(4-Fluoro-2-methoxy-5-((5-(trifluoromethyl)pyridin-2-yl)oxy)phenyl)-3-methyl-2-oxoimidazolidine-4-carboxamide], less than 50 nM; as for `COc1cc(F)c(Oc2ccc(C(F)(F)F)cn2)cc1NC(=O)[C@H]1COC(=O)N1C` [Compound 154, (R)—N-(4-Fluoro-2-methoxy-5-((5-(trifluoromethyl)pyridin-2-yl)-oxy)phenyl)-3-methyl-2-oxooxazolidine-4-carboxamide], less than 50 nM.
As for `COc1cc(F)c(Oc2ccc(C(F)(F)F)cn2)cc1NC(=O)[C@H]1CNC(=O)N1C` [Compound 155, (R)—N-(4-Fluoro-2-methoxy-5-((5-(trifluoromethyl)pyridin-2-yl)oxy)phenyl)-3-methyl-2-oxoimidazolidine-4-carboxamide], the figure is 50 to 300 nM.
Take `CN1C(=O)NCC1C(=O)Nc1cc(Oc2ccc(C(F)(F)F)cn2)cc2c1OCC2` (centres unmarked) [Compound 159, 3-Methyl-2-oxo-N-(5-((5-(trifluoromethyl)pyridin-2-yl)oxy)-2,3-dihydrobenzo-furan-7-yl)imidazolidine-4-carboxamide]: the IC50 was less than 50 nM.
In the case of `O=C1CC(C(=O)Nc2cc(Oc3ccc(C(F)(F)F)cn3)cc3c2OCC3)CCN1` (centres unmarked) [Compound 160, 2-Oxo-N-(5-((5-(trifluoromethyl)pyridin-2-yl)oxy)-2,3-dihydrobenzofuran-7-yl)-piperidine-4-carboxamide], the IC50 was in the range of 50 to 300 nM.
Then `O=C1CCC(C(=O)Nc2cc(Oc3ccc(C(F)(F)F)cn3)cc3c2OCC3)CN1` (centres unmarked) [Compound 161, 6-Oxo-N-(5-((5-(trifluoromethyl)pyridin-2-yl)oxy)-2,3-dihydrobenzofuran-7-yl)piperidine-3-carboxamide], with 50 to 300 nM.
Regarding `CN1C(=O)CC[C@@H]1C(=O)Nc1cc(Oc2ccc(C(F)(F)F)cn2)cc2c1OCC2` [Compound 162, (R)-1-Methyl-5-oxo-N-(5-((5-(trifluoromethyl)pyridin-2-yl)oxy)-2,3-dihydro-benzofuran-7-yl)pyrrolidine-2-carboxamide], the IC50 is less than 50 nM.
As for `CN1C(=O)CC[C@H]1C(=O)Nc1cc(Oc2ccc(C(F)(F)F)cn2)cc2c1OCC2` [Compound 163, (S)-1-Methyl-5-oxo-N-(5-((5-(trifluoromethyl)pyridin-2-yl)oxy)-2,3-dihydro-benzofuran-7-yl)pyrrolidine-2-carboxamide], the figure is less than 50 nM; as for `O=C(Nc1cc(Oc2ccc(C(F)(F)F)cn2)cc2c1OCC2)C1CNC(=O)N1C1CC1` (centres unmarked) [Compound 164, 3-Cyclopropyl-2-oxo-N-(5-((5-(trifluoromethyl)pyridin-2-yl)oxy)-2,3-dihydro-benzofuran-7-yl)imidazolidine-4-carboxamide], less than 50 nM.
With `O=C(Nc1cc(Oc2ccc(C(F)(F)F)cn2)cc2c1OCC2)[C@@H]1CCC(=O)N1C1CC1` [Compound 165, (S)-1-Cyclopropyl-5-oxo-N-(5-((5-(trifluoromethyl)pyridin-2-yl)oxy)-2,3-dihydrobenzofuran-7-yl)pyrrolidine-2-carboxamide], the IC50 is less than 50 nM.
Then `O=C(Nc1cc(Oc2ccc(C(F)(F)F)cn2)cc2c1OCC2)[C@H]1CCC(=O)N1C1CC1` [Compound 166, (R)-1-Cyclopropyl-5-oxo-N-(5-((5-(trifluoromethyl)pyridin-2-yl)oxy)-2,3-dihydrobenzofuran-7-yl)pyrrolidine-2-carboxamide], with less than 50 nM; and `CCN1C(=O)NCC1C(=O)Nc1cc(Oc2ccc(C(F)(F)F)cn2)cc2c1OCC2` (centres unmarked) [Compound 167, 3-Ethyl-2-oxo-N-(5-((5-(trifluoromethyl)pyridin-2-yl)oxy)-2,3-dihydrobenzo-furan-7-yl)imidazolidine-4-carboxamide], with less than 50 nM.
On to `CN1C(=O)NC[C@H]1C(=O)Nc1cc(Oc2ccc(C(F)(F)F)cn2)cc2c1OCC2` [Compound 168, (S)-3-Methyl-2-oxo-N-(5-((5-(trifluoromethyl)pyridin-2-yl)oxy)-2,3-dihydro-benzofuran-7-yl)imidazolidine-4-carboxamide], for which the IC50 is less than 50 nM.
Then `CN1C(=O)NC[C@@H]1C(=O)Nc1cc(Oc2ccc(C(F)(F)F)cn2)cc2c1OCC2` [Compound 169, (R)-3-Methyl-2-oxo-N-(5-((5-(trifluoromethyl)pyridin-2-yl)oxy)-2,3-dihydro-benzofuran-7-yl)imidazolidine-4-carboxamide], with 50 to 300 nM.
Then `CCN1C(=O)CC[C@@H]1C(=O)Nc1cc(Oc2ccc(C(F)(F)F)cn2)cc2c1OCC2` [Compound 170, (R)-1-Ethyl-5-oxo-N-(5-((5-(trifluoromethyl)pyridin-2-yl)oxy)-2,3-dihydro-benzofuran-7-yl)pyrrolidine-2-carboxamide], with less than 50 nM; and `CCN1C(=O)CC[C@H]1C(=O)Nc1cc(Oc2ccc(C(F)(F)F)cn2)cc2c1OCC2` [Compound 171, (S)-1-Ethyl-5-oxo-N-(5-((5-(trifluoromethyl)pyridin-2-yl)oxy)-2,3-dihydro-benzofuran-7-yl)pyrrolidine-2-carboxamide], with less than 50 nM; and `C[C@H]1Cc2cc(Oc3ccc(C(F)(F)F)cn3)cc(NC(=O)[C@H]3CCC(=O)N3C)c2O1` [Compound 172, (2R)-1-Methyl-N-(2-methyl-5-((5-(trifluoromethyl)pyridin-2-yl)oxy)-2,3-di-hydrobenzofuran-7-yl)-5-oxopyrrolidine-2-carboxamide], with 50 to 300 nM.
As for `C[C@@H]1Cc2cc(Oc3ccc(C(F)(F)F)cn3)cc(NC(=O)[C@H]3CCC(=O)N3C)c2O1` [Compound 173, (2R)-1-Methyl-N-(2-methyl-5-((5-(trifluoromethyl)pyridin-2-yl)oxy)-2,3-di-hydrobenzofuran-7-yl)-5-oxopyrrolidine-2-carboxamide], the figure is 50 to 300 nM; as for `CN1C(=O)CC[C@H]1C(=O)Nc1cc(Oc2ccc(C(F)(F)F)cn2)cc2c1OCCC2` [Compound 174, (S)-1-Methyl-5-oxo-N-(6-((5-(trifluoromethyl)pyridin-2-yl)oxy)chroman-8-yl)pyrrolidine-2-carboxamide], 50 to 300 nM.
Consider `CN1C(=O)CC[C@@H]1C(=O)Nc1cc(Oc2ccc(C(F)(F)F)cn2)cc2c1OCCC2` [Compound 175, (R)-1-Methyl-5-oxo-N-(6-((5-(trifluoromethyl)pyridin-2-yl)oxy)chroman-8-yl)pyrrolidine-2-carboxamide], for which the IC50 is less than 50 nM.
In the case of `CN1C(=O)NCC1C(=O)Nc1cc(Oc2ccc(C(F)(F)F)cn2)cc2c1OCCC2` (centres unmarked) [Compound 176, 3-Methyl-2-oxo-N-(6-((5-(trifluoromethyl)pyridin-2-yl)oxy)chroman-8-yl)-imidazolidine-4-carboxamide], the IC50 was less than 50 nM.
